In patent publication US8765786B2, “1-substituted indazole derivative” (Dainippon Sumitomo Pharma Co., Ltd., priority 2012, dated 2014):

Target: T1, human α7 nAChR (Homo sapiens, UniProt P36544)
T1 construct: expressed in transfected cells; host or cells: GH4C1 cells derived from rat pituitary (ATCC CCL-82.2)
Experiment: Evaluation of PAM activity with human α7 nACh receptor stably expressing cells (aequorin luminescence, FDSS7000)
Type: cell-based
Conditions: for α7PAM (%) @ 10 μmol/L / activity at 10 µM: test compound 10 μmol/L, ACh added at EC20, ratio of RLU (Max-Min) of test wells to control wells; for PAM activity for α7 nAChR: result in words, ratio of RLU (Max-Min) to control wells, ACh EC20; for activity at 10 µM: read-out: α7PAM (%) @ 10 μmol/L
Source text: Human α7 nAChR stably expressing cells were generated and cultured. In detail, GH4C1 cells derived from rat pituitary (cat#CCL-82.2, ATCC, USA) were used as a host cell. PcDNA3.1Zeo vector containing a nucleotide sequence encoding a protein GenBank BAC81731 and pcDNA3.1 vector containing human α7 nAChR gene (cat#V790-20, invitrogen, Carlsbad, Calif., USA) were transfected to the cells to give aequorins and human α7 nAChR stably expressing cells respectively. The aequorins and human α7 nAChR stably expressing cells were screened with Zeocin (cat#R25001, invitrogen, Carlsbad, Calif., USA) and Geneticin (cat #10131-027, invitrogen, Carlsbad, Calif., USA) respectively.
The cells were cultured in F-10 Nutrient Mixture (Ham) medium (cat #11550-043, invitrogen, Carlsbad, Calif., USA) containing 2.5% fetal bovine serum (cat #2917354, ICN Biomedicals, Inc, USA), 15% inactivated horse serum (cat #26050-088, invitrogen, Carlsbad, Calif., USA), 1 μg/mL Geneticin, and 5 μg/mL Puromycin (cat #14861-84, invitrogen, Carlsbad, Calif., USA), in a Collagen Type 1-coated dish (cat #4030-010, iwaki, Tokyo, Japan). During the culture, the medium was replaced with fresh medium in every 2 to 3 days, and the cells were treated with TrypLE Express (cat #45604-021, invitrogen, Carlsbad, Calif., USA) to collect them in every 7 days. Thus, the cells were subcultured.
7 Days after subculturing, the cells were treated with TrypLE Express to collect them when they were about 80% confluent. The cells were suspended in a reaction medium containing Hanks (cat #14065-056, invitrogen, Carlsbad, Calif., USA)/20 mmol/L Hepes (cat #15630-080, invitrogen, Carlsbad, Calif., USA), Buffer (pH 7.4), F-10 Nutrient Mixture (Ham), and 0.1 mg/mL Geneticin, and the suspension was seeded in a 384-well plate (cat #781090, Greiner, Germany) at 20000 cells/25 μL per well.
On the next day after seeding, Viviren (cat#E649X, Promega, Madison, Wis., USA) was added to the medium so that the final concentration could be 4 μmol/L (15 μL/well). The plates were centrifuged and then placed in the dark for 4 hours at room temperature.
Each of the test compounds was dissolved in DMSO to prepare each test sample at a concentration of 1000-fold the final concentration. To the solution was added Hanks/20 mM HEPES/0.2% BSA (cat#A3803, Sigma, St. Louis, Mo., USA), and the concentration was adjusted to 6-fold the final concentration.
FDSS7000 (Hamamatsu Photonics) was used to detect the luminescence signal evoked by α7 nAChR stimulation. The cells and a luminescent substrate were put on a plate, and the test sample was added thereto. […] After the addition of ACh, the luminescence signal (the central wavelength: 465 nm) was measured for 138 seconds to calculate RLU (Max-Min). The ratio of the RLU (Max-Min) of the test-compound-containing wells to that of the control wells was defined as PAM activity.

T1 sequence (P36544 23-502): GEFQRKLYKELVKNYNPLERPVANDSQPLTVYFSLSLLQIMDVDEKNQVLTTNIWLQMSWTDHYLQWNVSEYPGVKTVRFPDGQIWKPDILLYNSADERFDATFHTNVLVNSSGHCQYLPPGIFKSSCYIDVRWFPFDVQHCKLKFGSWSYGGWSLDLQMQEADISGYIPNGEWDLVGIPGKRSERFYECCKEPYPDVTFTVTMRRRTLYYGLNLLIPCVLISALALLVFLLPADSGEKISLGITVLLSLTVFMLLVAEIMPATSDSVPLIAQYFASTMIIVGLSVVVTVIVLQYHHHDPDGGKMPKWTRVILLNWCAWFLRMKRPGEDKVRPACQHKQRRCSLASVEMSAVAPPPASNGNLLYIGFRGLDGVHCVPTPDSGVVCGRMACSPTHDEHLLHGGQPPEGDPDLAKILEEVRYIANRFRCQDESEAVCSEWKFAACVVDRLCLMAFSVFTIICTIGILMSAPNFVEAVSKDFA

SMILES	α7PAM (%) @ 10 μmol/L	also measured
CO[C@H]1CC[C@@H](NC(=O)N2CCC(n3ncc4cc(C5CC5)ccc43)CC2)CC1 [Example 189]	257%	–
[2H]C([2H])([2H])O[C@H]1CC[C@H](NC(=O)N2CCC(n3ncc4cc(CC)ccc43)CC2)CC1 [Example 325]	997%	–
CC(C)Oc1ccc2c(cnn2C2CCN(C(=O)c3ccc(F)cn3)CC2)c1 [Example 115]	182%	–
COC(C)c1c(C)ccc2c1cnn2C1CCN(C(=O)N[C@H]2CC[C@H](OC)CC2)CC1 (some centres unmarked) [Example 233]	307%	–
O=C(Nc1ccc(C(F)(F)F)nc1)N1CCC(n2ncc3cc(C4CC4)ccc32)CC1 [Example 187]	220%	–
CCc1ccc2c(cnn2[C@H]2CC[C@@H](NC(=O)C3CCCCC3)CC2)c1 [Example 119]	2154%	PAM activity for α7 nAChR: stronger PAM activity than others
COc1c(C(F)(F)F)ccc2c1cnn2C1CCN(C(=O)NC2CCC(OC)CC2)CC1 (centres unmarked) [Example 317]	360%	–
O=C(NC1CCOCC1)N1CCC(n2ncc3cc(C(F)(F)F)ccc32)CC1 [Example 297]	340%	–
Cc1ccc2c(cnn2C2CCN(C(=O)N[C@H]3CC[C@H](OCC4CC4)CC3)CC2)c1 [Example 162]	1874%	–
Cc1ccc2c(cnn2C2CCN(C(=O)NC3CC(F)(F)C3)CC2)c1 [Example 218]	648%	–
CCOc1nn(C2CCN(C(=O)NC3CCCCC3)CC2)c2ccc(CC)cc12 [Example 60]	846%	–
CCc1c(OC)ccc2c1cnn2C1CCN(C(=O)N[C@H]2CC[C@H](OC)CC2)CC1 [Example 288]	218%	–
Cc1ccc2c(cnn2C2CCN(C(=O)NC3CCCC(F)(F)C3)CC2)c1 (centres unmarked) [Example 82]	888%	–
CCOCc1ccc2c(cnn2C2CCN(C(=O)NC3CCC(F)(F)CC3)CC2)c1 [Example 207]	335%	–
COc1ccc2c(c1)c(C1=CCOCC1)nn2C1CCN(C(=O)N[C@H]2CC[C@H](OC)CC2)CC1 [Example 260]	428%	–
CC1(C)CC(NC(=O)N2CCC(n3ncc4cc(C5CC5)ccc43)CC2)CCO1 (centres unmarked) [Example 210]	209%	–
CCc1ccc2c(cnn2C2CCN(C(=O)NC3CCC(F)(F)CC3)CC2)c1 [Example 23]	–	PAM activity for α7 nAChR: stronger PAM activity than others
O=C(NC1CCOCC1)N1CCC(n2ncc3c(OC(F)(F)F)cccc32)CC1 [Example 304]	380%	–
COc1c(Br)ccc2c1cnn2C1CCN(C(=O)NC2CCC(F)(F)CC2)CC1 [Example 284]	1109%	–
CCc1cnc2c(cnn2C2CCN(C(=O)NC3CCOCC3)CC2)c1 [Example 101]	338%	–
COC(C)c1ccc2c(cnn2C2CCN(C(=O)N[C@H]3CC[C@H](OC)CC3)CC2)c1 (some centres unmarked) [Example 245]	182%	–
COc1nn(C2CCN(C(=O)NC3CCOCC3)CC2)c2ccc(OC(F)(F)F)cc12 [Example 264]	263%	–
COC1CCC(NC(=O)N2CCC(n3ncc4c(C)cccc43)CC2)CC1 (centres unmarked) [Example 95]	133%	–
COCc1c(C2CC2)ccc2c1cnn2C1CCN(C(=O)NC2CCC(F)(F)CC2)CC1 [Example 215]	851%	–

SMILES	α7PAM (%) @ 10 μmol/L	also measured
COc1nn(C2CCN(C(=O)N[C@H]3CC[C@H](OC)CC3)CC2)c2ccc(C)cc12 [Example 147]	181%	–
CCOc1c(C)ccc2c1cnn2C1CCN(C(=O)NC2CCC(F)(F)CC2)CC1 [Example 269]	835%	–
[2H]C([2H])([2H])O[C@H]1CC[C@H](NC(=O)N2CCC(n3ncc4cc(C([2H])([2H])[2H])ccc43)CC2)CC1 [Example 308]	1021%	–
[2H]C([2H])([2H])O[C@H]1CC[C@H](NC(=O)N2CCC(n3ncc4cc(OC5CC5)ccc43)CC2)CC1 [Example 322]	639%	–
CCOc1c(C)ccc2c1cnn2C1CCN(C(=O)N[C@H]2CC[C@H](OC)CC2)CC1 [Example 145, 4-(4-ethoxy-5-methyl-1H-indazol-1-yl)-N-(trans-4-methoxycyclohexyl)piperidine-1-carboxamide]	–	activity at 10 µM: 804%
CCc1nn(C2CCN(C(=O)NC3CCC(F)(F)CC3)CC2)c2ccccc12 [Example 53]	309%	–
COc1ccc2c(cnn2C2CCN(C(=O)NC3CCC(F)(F)CC3)CC2)c1 [Example 41, N-(4,4-difluorocyclohexyl)-4-(5-methoxy-1H-indazol-1-yl)piperidine-1-carboxamide]	–	PAM activity for α7 nAChR: stronger PAM activity than others
COC1CCC(NC(=O)N2CCC(n3ncc4cc(Cl)ccc43)CC2)CC1 (centres unmarked) [Example 35]	411%	–
COCC1CCC(NC(=O)N2CCC(n3ncc4cc(C)ccc43)CC2)CC1 (centres unmarked) [Example 220]	2160%	PAM activity for α7 nAChR: stronger PAM activity than others
CCc1nn(C2CCN(C(=O)NC3CCOCC3)CC2)c2ccc(C)cc12 [Example 43]	528%	–
COc1ccc2c(cnn2C2CCN(C(=O)NC3CCC(F)(F)CC3)CC2)c1C1CC1 [Example 280]	299%	–
O=C(NC1CCC(F)(F)CC1)N1CCC(n2ncc3c(F)cccc32)CC1 [Example 190]	256%	–
COC1CC1c1ccc2c(cnn2C2CCN(C(=O)NC3CCC(F)(F)CC3)CC2)c1 (centres unmarked) [Example 248]	851%	–
COc1ccc2c(cnn2C2CCN(C(=O)NC3CCC(F)(F)CC3)CC2)c1C [Example 278]	861%	–
Cc1ccc2c(c1)c(C1CCOCC1)nn2C1CCN(C(=O)NC2CCC(F)(F)CC2)CC1 [Example 52, N-(4,4-difluorocyclohexyl)-4-(5-methyl-3-(tetrahydro-2H-pyran-4-yl)-1H-indazol-1-yl)piperidine-1-carboxamide]	–	activity at 10 µM: 366%
COc1ccc2c(cnn2C2CCN(C(=O)N[C@H]3CC[C@H](OC)CC3)CC2)c1C [Example 279]	185%	–
[2H]C([2H])([2H])Oc1nn(C2CCN(C(=O)NC3CCOCC3)CC2)c2ccc(C(F)(F)F)cc12 [Example 309]	406%	–
CCc1nn(C2CCN(C(=O)N[C@H]3CC[C@H](OC)CC3)CC2)c2ccc(OC)cc12 [Example 240]	833%	–
[2H]C([2H])([2H])Oc1nn(C2CCN(C(=O)NC3CCC(F)(F)CC3)CC2)c2ccc(C(F)(F)F)cc12 [Example 310]	134%	–
CCc1ccc2c(cnn2C2CCN(C(=O)NC3CCC(F)(F)CC3)CC2)c1OC [Example 256]	1668%	–
O=C(NC1CCC(F)(F)CC1)N1CCC(n2ncc3cc(-c4ccc(F)cc4)ccc32)CC1 [Example 70, N-(4,4-difluorocyclohexyl)-4-(5-(4-fluorophenyl)-1H-indazol-1-yl)piperidine-1-carboxamide]	–	activity at 10 µM: 719%
COC1CCC(NC(=O)N2CCC(n3ncc4c(C5CC5)cccc43)CC2)CC1 (centres unmarked) [Example 37]	481%	–
CO[C@H]1CC[C@H](NC(=O)N2CCC(n3ncc4c(F)c(C)ccc43)CC2)CC1 [Example 223]	257%	–
COCc1nn(C2CCN(C(=O)NC3CCCCC3)CC2)c2ccc(C)cc12 [Example 68]	430%	–
